The conditions of data set [1]: two hours after infusion; patients; cited from earlier work.
The test system of data set [2] is carrageenan-induced thermal hyperalgesia. The experiment in a line: rat carrageenan-induced inflammatory pain model (thermal hyperalgesia, hind paw withdrawal latency). It is filed as in vivo, Male Wistar rats. The note with it: for effect on induced hyperalgesia (withdrawal latency of ipsilateral, carrageenan-injected hind paw): 1 hour after administration. On the procedure: Anti-migraine agents are commonly evaluated using the carrageenan-induced thermal hyperalgesia model (Bingham et al, Experimental Neurology, 167:65-73 (2001); Daher et al, Life Sciences, 76:2349-2359 (2005)).
Male Wistar rats (5/group) were used for the experiment. Withdrawal latency to escape from heat noxious stimuli on both hind paws of the rats was measured using TAIL FLICK 7360 (Ugo Basile, Italy). 1% Carageenan was injected into the right hind paw footpat of the rats. […] The withdrawal latency from heat stimuli of both hind paws of rats was measured 1, 3 and 5 hours after drug administration.
The effect of carrageenan was observed during all of the experiment period.

Turning to `CNS(=O)(=O)Cc1ccc2[nH]cc(CCN(C)C)c2c1` [sumatriptan], the “efficacy rate for a sustained response” value in data set [1] is 87%.

As to `O=C(O)[C@@H]1C[C@H]2C[C@@H](CCc3nn[nH]n3)CC[C@H]2CN1` [LY293558], in data set [1], the “efficacy rate for a sustained response” value is 69%.

`N#Cc1ccccc1-c1cc(-c2ccccn2)cn(-c2ccccc2)c1=O` [Compound A, 2-(2-oxo-1-phenyl-5-pyridin-2-yl-1,2-dihydropyridin-3-yl)benzonitrile]: the “effect on induced hyperalgesia (withdrawal latency of ipsilateral, carrageenan-injected hind paw)” value in data set [2] (3 mg/kg orally, FIG. 1) is reported as “inhibited induced hyperalgesia”; in data set [2] (6 mg/kg orally, FIG. 1) it was “inhibited induced hyperalgesia”. In addition, in data set [2] (3 and 6 mg/kg orally, 3 and 5 hours after administration, FIG. 1), the “course of the anti-hyperalgesic effect (ipsilateral hind paw)” value is on record as “declined”. Besides, in data set [2] (orally, contralateral (left) hind paw, FIG. 2), the “withdrawal latency of contralateral hind paw” value is reported as “did not change the latency”. In addition, the “effect on motor function (suggested from unchanged contralateral latency)” value in data set [2] (rats, orally, FIG. 2) is listed as “did not affect motor function”.

The values above are taken from patent US20060276510A1, “Dihydropyridine compounds and compositions for headaches” (priority 2005, published 2006).
